Source: patent US6649784B2, “Aspartyl dipeptide ester derivatives and sweeteners” (Ajinomoto Co., Inc., priority 1999, dated 2003)

Key:
[1] = times that of sucrose/sugar; reported in WO 94/11391 (b9: compared with 2, 5 and 10% sucrose solutions); cited from earlier work
[2] = organoleptic (sensory) test of sweetening potency; settings: for Sweetening potency: value compared with a 4% sucrose aqueous solution
Source text: For example, a sweetening potency of N-[N-[3-(3,4-dihydroxyphenyl)-3-methylbutyl]-L-α-aspartyl]-L-phenylalanine 1-methyl ester was approximately 50,000 times (relative to sugar), and a sweetening potency of N-[N-[3-(3,4,5-trihydroxyphenyl)propyl]-L-α-aspartyl]-L-phenylalanine 1-methyl ester was approximately 25,000 times (relative to sugar).
The structures and the results of the sensory test on some aspartyl dipeptide ester derivatives (represented by the following general formula (1)) formed are shown in Table 1.

Structure (SMILES)	sweetening potency (degree of sweetness) [1]	Sweetening potency (relative to sugar) [2]	Sweetening potency [2]	further results
COC(=O)[C@H](Cc1ccccc1)NC(=O)[C@H](CC(=O)O)NCCC(C)c1ccccc1 (mixture of isomers) [N-[N-[(RS)-3-phenylbutyl]-L-α-aspartyl]-L-phenylalanine 1-methyl ester]	1,200 times	–	–	–
COC(=O)[C@H](Cc1ccccc1)NC(=O)[C@H](CC(=O)O)NCCCc1ccc(O)cc1O [Compound 1, N-[N-[3-(2,4-dihydroxyphenyl)propyl]-L-α-aspartyl]-L-phenylalanine 1-methyl Ester]	–	10,000 times	10000	–
COC(=O)[C@H](Cc1ccccc1)NC(=O)[C@H](CC(=O)O)NCCCc1ccc(O)c(O)c1 [Compound 2, N-[N-[3-(3,4-dihydroxyphenyl)propyl]-L-α-aspartyl]-L-phenylalanine 1-methyl Ester]	–	15,000 times	15000	–
COC(=O)[C@H](Cc1ccccc1)NC(=O)[C@H](CC(=O)O)NCCCc1ccc(O)c(O)c1O [Compound 3, N-[N-[3-(2,3,4-trihydroxyphenyl)propyl]-L-α-aspartyl]-L-phenylalanine 1-methyl Ester]	–	10,000 times	10000	–
COC(=O)[C@H](Cc1ccccc1)NC(=O)[C@H](CC(=O)O)NCCCc1cc(O)c(O)c(O)c1 [Compound 4, N-[N-[3-(3,4,5-trihydroxyphenyl)propyl]-L-α-aspartyl]-L-phenylalanine 1-methyl Ester]	–	–	25000	Sweetening potency (relative to sugar) ([2]; listed as Example 4): 25,000 times; Sweetening potency (relative to sugar) ([2]; listed as N-[N-[3-(3,4,5-trihydroxyphenyl)propyl]-L-α-aspartyl]-L-phenylalanine 1-methyl e): approximately 25,000 times
COC(=O)[C@H](Cc1ccccc1)NC(=O)[C@H](CC(=O)O)NCCC(C)(C)c1ccc(O)c(O)c1 [Compound 5, N-[N-[3-(3,4-dihydroxyphenyl)-3-methylbutyl]-L-α-aspartyl]-L-phenylalanine 1-methyl Ester]	–	–	50000	Sweetening potency (relative to sugar) ([2]; listed as Example 5): 50,000 times; Sweetening potency (relative to sugar) ([2]; listed as N-[N-[3-(3,4-dihydroxyphenyl)-3-methylbutyl]-L-α-aspartyl]-L-phenylalanine 1-met): approximately 50,000 times
COC(=O)[C@H](Cc1ccccc1)NC(=O)[C@H](CC(=O)O)NCCC(C)(C)C [N-[N-(3,3-dimethylbutyl)-L-α-aspartyl]-L-phenylalanine 1-methyl ester]	10,000 times	–	–	–
COC(=O)[C@H](Cc1ccccc1)NC(=O)[C@H](CC(=O)O)NCCCc1ccccc1 [N-[N-(3-phenylpropyl)-L-α-aspartyl]-L-phenylalanine 1-methyl ester]	1,500 times	–	–	–
COC(=O)[C@H](Cc1ccccc1)NC(=O)[C@H](CC(=O)O)NCCCc1ccc(O)c(OC)c1 [N-[N-[3-(3-methoxy-4-hydroxyphenyl)propyl]-L-α-aspartyl]-L-phenylalanine 1-methyl ester]	2,500 times	–	–	–
